Patent US20240050428A1 (Cullgen (Shanghai), Inc., priority 2020, published 2024)
Where two headings read alike, the source gives them in different places.

Key:
MV4;11 cells = assay: Cell viability assay (CellTiter-Glo) in MV4;11 cells, alone or with gilteritinib; type: cell-based; details: Homo sapiens, MV4-11, 72 h, MV4;11 cells, three days, CellTiter-Glo, read-out: MV4
MOLM-13 cells = assay: Cell viability assay (CellTiter-Glo) in MOLM-13 cells, alone or with gilteritinib; type: cell-based; details: Homo sapiens, MOLM-13, 72 h, MOLM-13 cells, three days, CellTiter-Glo
[1] = compound alone (without gilteritinib), 11 IC50
[2] = with gilteritinib 10 nM, 11 IC50 gilteritinib
[3] = compound alone (without gilteritinib), read-out: MOLM-13 IC50
[4] = with gilteritinib 20 nM, read-out: MOLM-13 IC50 gilteritinib

SMILES | IC50 (MV4;11 cells; [1]) [µM] | IC50 (MV4;11 cells; [2]) [µM] | IC50 (MOLM-13 cells; [3]) [µM] | IC50 (MOLM-13 cells; [4]) [µM]
O=C(Cc1ccc(N2CCC(n3cc(-c4cnc5ccccc5n4)cn3)CC2)cc1)NCc1ccc2c(c1)CN(C1CCC(=O)NC1=O)C2=O (centres unmarked) [GS-122, N-((2-(2,6-dioxopiperidin-3-yl)-1-oxoisoindolin-5-yl)methyl)-2-(4-(4-(4-(quinoxalin-2-yl)-1H-pyrazol-1-yl)piperidin-1-yl)phenyl)acetamide] | < 0.01 | < 0.01 | < 0.01 | < 0.01
O=C1CCC(N2C(=O)c3ccc(NCCCCCC4(N5CCC(n6cc(-c7cnc8ccccc8n7)cn6)CC5)CC4)cc3C2=O)C(=O)N1 (centres unmarked) [GS-123, 2-(2,6-Dioxopiperidin-3-yl)-5-((5-(1-(4-(4-(quinoxalin-2-yl)-1H-pyrazol-1-yl)piperidin-1-yl)cyclopropyl)pentyl)amino)isoindoline-1,3-dione] | 0.1 to 1 | 0.1 to 1 | > 1 | < 0.01
O=C1CCC(N2C(=O)c3ccc(NCCCCC4(N5CCC(n6cc(-c7cnc8ccccc8n7)cn6)CC5)CC4)cc3C2=O)C(=O)N1 (centres unmarked) [GS-124, 2-(2,6-Dioxopiperidin-3-yl)-5-((4-(1-(4-(4-(quinoxalin-2-yl)-1H-pyrazol-1-yl)piperidin-1-yl)cyclopropyl)butyl)amino)isoindoline-1,3-dione] | > 1 | > 1 | > 1 | 0.01 to 0.1
O=C1CCC(N2Cc3c(NC4CCCC(Nc5nccc(N6CCC(n7cc(-c8cnc9ccccc9n8)cn7)CC6)n5)C4)cccc3C2=O)C(=O)N1 (centres unmarked) [GS-125, 3-(1-Oxo-4-((3-((4-(4-(4-(quinoxalin-2-yl)-1H-pyrazol-1-yl)piperidin-1-yl)pyrimidin-2-yl)amino)cyclohexyl)amino)isoindolin-2-yl)piperidine-2,6-dione] | 0.1 to 1 | 0.1 to 1 | > 1 | > 1
O=C1CCC(N2Cc3cc(NCCCCCC4(N5CCC(n6cc(-c7cnc8ccccc8n7)cn6)CC5)CC4)ccc3C2=O)C(=O)N1 (centres unmarked) [GS-126, 3-(1-Oxo-5-((5-(1-(4-(4-(quinoxalin-2-yl)-1H-pyrazol-1-yl)piperidin-1-yl)cyclopropyl)pentyl)amino)isoindolin-2-yl)piperidine-2,6-dione] | 0.1 to 1 | > 1 | > 1 | > 1
CC(CCCCCCc1ccc2c(c1)C(=O)N(C1CCC(=O)NC1=O)C2)n1cc(-c2cnc3ccccc3n2)cn1 (centres unmarked) [GS-127, 3-(1-Oxo-6-(7-(4-(quinoxalin-2-yl)-1H-pyrazol-1-yl)octyl)isoindolin-2-yl)piperidine-2,6-dione] | > 1 | 0.1 to 1 | > 1 | 0.1 to 1
O=C1CCC(N2Cc3ccc(NCCCCCCn4cc(-c5cnc6ccccc6n5)cn4)cc3C2=O)C(=O)N1 (centres unmarked) [GS-128, 3-(1-Oxo-6-((6-(4-(quinoxalin-2-yl)-1H-pyrazol-1-yl)hexyl)amino)isoindolin-2-) piperidine-2,6-dione] | > 1 | > 1 | > 1 | > 1
O=C1CCC(N2C(=O)c3ccc(NCCCCS(=O)(=O)N4CCC(n5cc(-c6cnc7ccccc7n6)cn5)CC4)cc3C2=O)C(=O)N1 (centres unmarked) [GS-129, 2-(2,6-Dioxopiperidin-3-yl)-5-((4-((4-(4-(quinoxalin-2-yl)-1H-pyrazol-1-yl)piperidin-1-yl)sulfonyl)butyl)amino)isoindoline-1,3-dione] | > 1 | 0.1 to 1 | > 1 | 0.1 to 1
O=C(CC12CC(N3CCC(n4cc(-c5cnc6ccccc6n5)cn4)CC3)(C1)C2)NCc1ccc2c(c1)CN(C1CCC(=O)NC1=O)C2=O (centres unmarked) [GS-130, N-((2-(2,6-dioxopiperidin-3-yl)-1-oxoisoindolin-5-yl)methyl)-2-(3-(4-(4-(quinoxalin-2-yl)-1H-pyrazol-1-yl)piperidin-1-yl)bicyclo[1.1.1]pentan-1-yl)acetamide] | > 1 | > 1 | > 1 | > 1
O=C1CCC(N2Cc3ccc(NCCCC4CC(n5cc(-c6cnc7ccccc7n6)cn5)C4)cc3C2=O)C(=O)N1 (centres unmarked) [GS-131, 3-(1-Oxo-6-((3-(3-(4-(quinoxalin-2-yl)-1H-pyrazol-1-yl)cyclobutyl)propyl)amino)isoindolin-2-yl)piperidine-2,6-dione] | > 1 | > 1 | > 1 | > 1
O=C1CCC(N2C(=O)c3ccc(NCCCNC(=O)N4CCC(n5cc(-c6cnc7ccccc7n6)cn5)CC4)cc3C2=O)C(=O)N1 (centres unmarked) [GS-132, N-(3-((2-(2,6-dioxopiperidin-3-yl)-1,3-dioxoisoindolin-5-yl)amino)propyl)-4-(4-(quinoxalin-2-yl)-1H-pyrazol-1-yl)piperidine-1-carboxamide] | < 0.01 | < 0.01 | < 0.01 | < 0.01
O=C1CCC(N2Cc3c(NC4CCCN(Cc5cccc(N6CCC(n7cc(-c8cnc9ccccc9n8)cn7)CC6)c5)C4)cccc3C2=O)C(=O)N1 (centres unmarked) [GS-133, 3-(1-Oxo-4-((1-(3-(4-(4-(quinoxalin-2-yl)-1H-pyrazol-1-yl)piperidin-1-yl)benzyl)piperidin-3-yl)amino)isoindolin-2-yl)piperidine-2,6-dione] | > 1 | > 1 | > 1 | > 1
Cc1nc2ccccc2nc1-c1cnn(CCCCCCCc2ccc3c(c2)C(=O)N(C2CCC(=O)NC2=O)C3)c1 (centres unmarked) [GS-134, 3-(6-(7-(4-(3-Methylquinoxalin-2-yl)-1H-pyrazol-1-yl)heptyl)-1-oxoisoindolin-2-yl)piperidine-2,6-dione] | 0.01 to 0.1 | 0.01 to 0.1 | 0.01 to 0.1 | < 0.01
O=C1CCC(N2Cc3c(NC4CCCC(Nc5cccc(N6CCC(c7cccc(Cl)c7)CC6)c5)C4)cccc3C2=O)C(=O)N1 (centres unmarked) [GS-135, 3-(4-((3-((3-(4-(3-Chlorophenyl)piperidin-1-yl)phenyl)amino)cyclohexyl)amino)-1-oxoisoindolin-2-yl)piperidine-2,6-dione] | > 1 | 0.1 to 1 | > 1 | > 1
O=C1CCC(N2C(=O)c3ccc(NCCCCC(=O)N4C5CCC4CC(n4cc(-c6cnc7ccccc7n6)cn4)C5)cc3C2=O)C(=O)N1 (centres unmarked) [GS-136, 2-(2,6-Dioxopiperidin-3-yl)-5-((5-oxo-5-(3-(4-(quinoxalin-2-yl)-1H-pyrazol-1-yl)-8-azabicyclo[3.2.1]octan-8-yl)pentyl)amino)isoindoline-1,3-dione] | > 1 | > 1 | > 1 | > 1
O=C1CCC(N2Cc3cc(NCCCCC4(N5CCC(n6cc(-c7cnc8ccccc8n7)cn6)CC5)CC4)ccc3C2=O)C(=O)N1 (centres unmarked) [GS-137, 3-(1-Oxo-5-((4-(1-(4-(4-(quinoxalin-2-yl)-1H-pyrazol-1-yl)piperidin-1-yl)cyclopropyl)butyl)amino)isoindolin-2-yl)piperidine-2,6-dione] | > 1 | > 1 | > 1 | > 1
CC(CCCNc1ccc2c(c1)C(=O)N(C1CCC(=O)NC1=O)C2=O)C(=O)N1CCC(n2cc(-c3cnc4ccccc4n3)cn2)CC1 (centres unmarked) [GS-138, 2-(2,6-Dioxopiperidin-3-yl)-5-((4-methyl-5-oxo-5-(4-(4-(quinoxalin-2-yl)-1H-pyrazol-1-yl)piperidin-1-yl)pentyl)amino)iaoindoline-1,3-dione] | > 1 | > 1 | > 1 | > 1
